One assay concerns the target T1, PKC-alpha (Homo sapiens, UniProt P17252).
T1 construct: purchased Oxford Biomedical Research
The assay can be described thus: Protein Kinase C assay (fluorescence polarization), PKC-alpha. It is filed as biochemical. The procedure:
(§1) The inhibition of PKC activity was measured by monitoring the production of phosphorylated peptide by fluorescence polarization at different concentrations of the inhibitor. Reactions were carried out in 96-well plate format with a total volume of 20 μL containing 20 mM HEPES, pH 7.4, 5 mM MgCl2, 0.2 mM CaCl2, 1 mM DTT, 0.02% Brij-35, 0.1 mg/mL phosphatidylserine, 0.02 mg/mL dioleoyl-sn-glycerol and 5 μM each of ATP and the peptide substrate. Compounds were first diluted serially in DMSO and then transferred to a solution containing the above concentrations of HEPES, MgCl2, CaCl2, DTT, and Brij-35 to yield 5× compound solutions in 2% DMSO, which was then added to the reaction solution. Reactions were initiated by the addition of PKC at a typical concentration as described in the table below, and then allowed to incubate at room temperature for 20 minutes. At the end of this time, a combination of quench (EDTA) and detection (peptide tracer and antibody) reagents was added using the protocol of Invitrogen P2748 (Carlsbad, Calif.), a Protein Kinase C Fluorescence polarization Assay Kit. After a 30 minute period of incubation, the amount of phosphorylated peptide generated was measured by fluorescence polarization (Ex=485 nm, Em=535 nm) using a Tecan Polarian instrument (Switzerland).
Human recombinant PKC α is obtained from Oxford Biomedical Research and is used under the assay conditions as described under Section A.1 above.
(§2) Several subject compounds were tested according to procedures in the “Characterization of Functional Properties” section. PKC kinase activity was measured using the procedure Section A.1 (Protein Kinase C assay) with the appropriate isoform. The whole cell assay was run according to the procedure in Section A.2 (IL-2 ELISA, Human primary T cell, anti-CD3+CD28+ Assays). […] Blank entries indicate that the IC50 was not determined.

A further assay addresses T2, PKC-theta (Homo sapiens, UniProt Q04759).
T2 construct: purchased Upstate Biotechnologies, Temecula, CA 14-444
The assay can be described thus: Protein Kinase C assay (fluorescence polarization), PKC-theta. It is filed as biochemical. The procedure: as §1
Human recombinant PKC θ is used under the assay conditions as described above.
as §2
Background: Fluorescence polarisation rises when a labelled molecule tumbles more slowly, as on binding a larger partner.

The next assay addresses T3, PKC-epsilon (Homo sapiens, UniProt Q02156).
T3 construct: purchased Upstate Biotechnologies, Temecula, CA 14-518
T3 sequence (Q02156 1-737): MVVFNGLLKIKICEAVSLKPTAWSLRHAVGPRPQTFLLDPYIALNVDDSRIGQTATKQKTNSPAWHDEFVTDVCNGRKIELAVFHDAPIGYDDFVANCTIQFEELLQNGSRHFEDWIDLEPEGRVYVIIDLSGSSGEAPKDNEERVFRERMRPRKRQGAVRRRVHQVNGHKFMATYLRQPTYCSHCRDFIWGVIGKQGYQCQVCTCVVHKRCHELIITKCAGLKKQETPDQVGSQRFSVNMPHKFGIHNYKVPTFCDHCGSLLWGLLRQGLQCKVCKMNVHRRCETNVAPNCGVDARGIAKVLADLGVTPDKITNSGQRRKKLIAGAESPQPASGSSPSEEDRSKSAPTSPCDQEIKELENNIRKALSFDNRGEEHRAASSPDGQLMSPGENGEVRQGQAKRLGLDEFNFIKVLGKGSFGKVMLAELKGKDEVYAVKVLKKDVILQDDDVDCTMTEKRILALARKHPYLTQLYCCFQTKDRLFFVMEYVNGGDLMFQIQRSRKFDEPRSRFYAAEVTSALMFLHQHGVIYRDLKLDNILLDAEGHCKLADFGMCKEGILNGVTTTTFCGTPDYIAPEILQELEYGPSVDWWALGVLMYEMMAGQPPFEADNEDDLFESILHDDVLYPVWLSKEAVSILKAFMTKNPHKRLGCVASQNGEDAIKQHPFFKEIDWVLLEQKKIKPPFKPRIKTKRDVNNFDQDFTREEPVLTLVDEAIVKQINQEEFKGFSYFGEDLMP
The assay can be described thus: Protein Kinase C assay (fluorescence polarization), PKC-epsilon. Type of assay: biochemical. The procedure:
as §1
Human recombinant PKC […] is obtained from Oxford Biomedical Research and is used under the assay conditions as described under Section A.1 above.
as §2

For the next assay, the target named is T4, PKC-beta (Homo sapiens, UniProt P05771).
T4 construct: purchased Oxford Biomedical Research
T4 sequence (P05771 whole entry): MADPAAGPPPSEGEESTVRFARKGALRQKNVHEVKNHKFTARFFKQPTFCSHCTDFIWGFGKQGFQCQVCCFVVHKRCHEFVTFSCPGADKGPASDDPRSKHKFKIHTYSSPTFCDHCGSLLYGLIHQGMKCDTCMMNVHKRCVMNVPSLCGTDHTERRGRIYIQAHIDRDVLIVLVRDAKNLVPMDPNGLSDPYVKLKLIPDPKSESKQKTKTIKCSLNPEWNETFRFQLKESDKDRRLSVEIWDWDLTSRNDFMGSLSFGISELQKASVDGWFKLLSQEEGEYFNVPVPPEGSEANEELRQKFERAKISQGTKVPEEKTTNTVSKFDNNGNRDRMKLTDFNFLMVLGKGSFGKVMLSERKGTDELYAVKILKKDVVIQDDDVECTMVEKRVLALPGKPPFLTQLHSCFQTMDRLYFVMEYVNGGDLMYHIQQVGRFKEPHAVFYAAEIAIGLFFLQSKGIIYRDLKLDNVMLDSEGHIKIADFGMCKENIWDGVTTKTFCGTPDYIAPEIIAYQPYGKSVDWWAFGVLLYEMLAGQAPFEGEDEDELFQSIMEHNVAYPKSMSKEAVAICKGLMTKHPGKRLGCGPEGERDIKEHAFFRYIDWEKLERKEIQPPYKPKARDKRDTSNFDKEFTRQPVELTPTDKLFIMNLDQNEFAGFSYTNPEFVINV
Briefly: Protein Kinase C assay (fluorescence polarization), PKC-beta. It is filed as biochemical. The procedure:
as §1
Human recombinant PKC β1 is obtained from Oxford Biomedical Research and is used under the assay conditions as described under Section A.1 above.
as §2

The next assay addresses T5, PKC-delta (Homo sapiens, UniProt Q05655).
T5 construct: purchased Oxford Biomedical Research
Briefly: Protein Kinase C assay (fluorescence polarization), PKC-delta. Type of assay: biochemical. The protocol:
as §1
Human recombinant PKC δ is obtained from Oxford Biomedical Research and is used under the assay conditions as described under Section A.1 above.
as §2

Another assay relates to Human primary T cell. The assay can be described thus: IL-2 ELISA, human primary T cell, anti-CD3+CD28+ whole cell assay. Type of assay: cell-based. The conditions noted are these: IL-2 by ELISA, human primary T cells stimulated with anti-CD3+CD28. The procedure:
2. IL-2 ELISA, Human Primary T Cell, Anti-CD3+CD28+ Assays
Human primary T cells were prepared as follows. Whole blood was obtained from a healthy volunteer, mixed 1:1 with PBS, layered on to Ficoll Hypaque (Amersham Pharmacia Biotech, Piscataway, N.J., Catalog #17-1440-03) in 2:1 blood/PBS:ficoll ratio and centrifuged for 30 minutes at 4° C. at 1750 rpm. The cells at the serum:ficoll interface were recovered and washed twice with 5 volumes of PBS. These freshly isolated human peripheral blood mononuclear cells were cultured in Yssel's medium containing 40 U/mL IL2 in a flask pre-coated with 1 μg/mL αCD3 and 5 μg/mL αCD28 (Anti-Human CD3, BD Pharmingen Catalog #555336, Anti-Human CD28, Beckman Coulter Catalog #1M1376). The cells were stimulated for 3-4 days, then transferred to a fresh flask and maintained in RPMI (RPMI-1640 with L-Glutamine; Mediatech, Inc., Herndon Va., cat. #10-040-CM) with 10% FBS and 40 U/mL IL-2. The primary T-cells were then washed twice with PBS to remove the IL-2.
Human primary T cells (100,000 cells per well) were pre-incubated with or without test compound in Yssel's medium for 1 hr at 37° C. Cells were then stimulated by transferring them to round-bottom 96-well plates pre-coated with 1 μg/ml αCD3 and 5 μg/ml αCD28. For counter assay, cells were instead stimulated by adding 8× stock solutions of PMA and ionomycin in Yssels (for final concentrations of 0.5 ng/ml PMA and 0.1 μM ionomycin, both from Calbiochem). Cells were incubated at 37° C. for 24 hours before 100 μL supernatants were harvested for quantification of IL-2 by ELISA using Human IL-2 Duoset ELISA Kit from R and D Systems, Cat. # DY202E.
as §2

T5 sequence (Q05655 whole entry): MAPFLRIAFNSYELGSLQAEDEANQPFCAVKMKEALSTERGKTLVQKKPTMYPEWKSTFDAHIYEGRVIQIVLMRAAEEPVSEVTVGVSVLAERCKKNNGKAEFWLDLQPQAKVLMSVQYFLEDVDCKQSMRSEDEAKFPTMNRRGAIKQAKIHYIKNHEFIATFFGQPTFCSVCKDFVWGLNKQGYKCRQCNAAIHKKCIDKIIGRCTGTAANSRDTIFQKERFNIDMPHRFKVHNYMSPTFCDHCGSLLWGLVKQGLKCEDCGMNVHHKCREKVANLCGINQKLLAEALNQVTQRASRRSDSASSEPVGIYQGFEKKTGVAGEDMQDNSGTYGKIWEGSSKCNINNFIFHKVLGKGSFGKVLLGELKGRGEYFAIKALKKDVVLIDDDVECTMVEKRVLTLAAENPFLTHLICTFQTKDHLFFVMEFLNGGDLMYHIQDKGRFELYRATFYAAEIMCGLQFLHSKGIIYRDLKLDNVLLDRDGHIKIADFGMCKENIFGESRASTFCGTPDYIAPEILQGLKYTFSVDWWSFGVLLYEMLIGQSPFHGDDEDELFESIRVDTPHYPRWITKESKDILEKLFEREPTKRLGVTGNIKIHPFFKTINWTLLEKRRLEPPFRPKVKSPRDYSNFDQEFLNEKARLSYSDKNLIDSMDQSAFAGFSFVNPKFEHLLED
T2 sequence (Q04759 whole entry): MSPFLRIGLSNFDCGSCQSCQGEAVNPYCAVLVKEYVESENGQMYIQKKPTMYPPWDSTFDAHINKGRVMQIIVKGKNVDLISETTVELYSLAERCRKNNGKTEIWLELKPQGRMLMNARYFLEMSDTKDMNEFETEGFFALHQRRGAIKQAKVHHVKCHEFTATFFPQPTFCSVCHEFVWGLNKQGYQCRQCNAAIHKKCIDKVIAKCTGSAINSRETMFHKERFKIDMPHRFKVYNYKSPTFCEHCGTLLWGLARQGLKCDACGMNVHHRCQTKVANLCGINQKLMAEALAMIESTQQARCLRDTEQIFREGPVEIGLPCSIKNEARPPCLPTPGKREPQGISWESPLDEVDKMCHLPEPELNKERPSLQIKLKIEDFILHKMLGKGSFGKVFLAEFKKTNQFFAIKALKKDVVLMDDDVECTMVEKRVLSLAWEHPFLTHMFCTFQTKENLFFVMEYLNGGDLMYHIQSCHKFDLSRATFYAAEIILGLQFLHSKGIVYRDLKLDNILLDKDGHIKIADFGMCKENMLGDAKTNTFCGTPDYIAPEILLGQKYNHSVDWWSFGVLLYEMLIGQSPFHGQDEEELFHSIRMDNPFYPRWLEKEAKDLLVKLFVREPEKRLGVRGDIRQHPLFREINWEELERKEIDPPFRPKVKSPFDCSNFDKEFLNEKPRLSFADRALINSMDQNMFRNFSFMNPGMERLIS

What is called IC50 is the concentration that gives 50% inhibition. Take `CC1(C)CC(Nc2nc(Nc3ccc4c(c3)-n3nnnc3C3(CCC3)O4)ncc2F)CC(C)(C)N1` [Compound 1-11, N2-{2,1-Spiro-butane-4H-tetrazolo[5,1-c][1,4]benzoxazin-8-yl}-5-fluoro-N4-(2,2,6,6-tetramethylpiperidin-4-yl)-2,4-pyrimidinediamine]: the IC50 on PKC-alpha, at PKC-theta, at PKC-epsilon, at PKC-beta, on PKC-delta and with Human primary T cell (T-cell) was less than 250 nM in each case.
As for `CC1(C)CC(Nc2nc(Nc3ccc4c(c3)-n3nnnc3CO4)ncc2F)CC(C)(C)N1` [Compound 1-1, N2-(4H-benzo[b]tetrazolo[1,5-d][1,4]oxazin-8-yl)-5-fluoro-N4-(2,2,6,6-tetramethylpiperidin-4-yl)pyrimidine-2,4-diamine], the IC50 on PKC-alpha, on PKC-theta, on PKC-epsilon, at PKC-beta, at PKC-delta and with Human primary T cell (T-cell) was less than 250 nM throughout.
With `CN1C(C)(C)CC(Nc2nc(Nc3ccc4c(c3)-c3nnnn3C(C)(C)O4)ncc2F)CC1(C)C` [Compound 1-10, N2-(5,5-dimethyl-5H-benzo[e]tetrazolo[1,5-c][1,3]oxazin-9-yl)-5-fluoro-N4-(1,2,2,6,6-pentamethylpiperidin-4-yl)pyrimidine-2,4-diamine], the IC50 with Human primary T cell (T-cell) is less than 250 nM.
`CN1C(C)(C)CC(CNc2nc(Nc3ccc4c(c3)-n3nnnc3CO4)ncc2F)C1(C)C` (stereo not shown) [Compound 2-2, N2-(4H-benzo[b]tetrazolo[1,5-d][1,4]oxazin-8-yl)-5-fluoro-N4-((1,2,2,5,5-pentamethylpyrrolidin-3-yl)methyl)pyrimidine-2,4-diamine]: the IC50 on PKC-alpha, on PKC-theta, at PKC-epsilon, at PKC-beta, on PKC-delta and in the assay with Human primary T cell (T-cell) was less than 250 nM each time.
As to `CC1(C)CC(Nc2nc(Nc3ccc4c(c3)-n3nnnc3C(C)(C)O4)ncc2F)CC(C)(C)N1` [Compound 1-7, N2-(4,4-dimethyl-4H-benzo[b]tetrazolo[1,5-d][1,4]oxazin-8-yl)-5-fluoro-N4-(2,2,6,6-tetramethylpiperidin-4-yl)pyrimidine-2,4-diamine], the IC50 at PKC-alpha, at PKC-theta, on PKC-epsilon, on PKC-beta, at PKC-delta and with Human primary T cell (T-cell) was less than 250 nM throughout.
As to `CC1C[C@H](CNc2nc(Nc3ccc4c(c3)-n3nnnc3C(C)(C)O4)ncc2F)C(C)(C)N1` (stereo partly drawn) [Compound 2-8, N2-(4,4-dimethyl-4H-benzo[b]tetrazolo[1,5-d][1,4]oxazin-8-yl)-5-fluoro-N4-(((3R)-2,2,5-trimethylpyrrolidin-3-yl)methyl)pyrimidine-2,4-diamine], the IC50 on PKC-alpha is less than 250 nM; at PKC-theta, less than 250 nM; on PKC-epsilon, less than 250 nM; on PKC-beta it was 250 to 500 nM; at PKC-delta, less than 250 nM; in the assay on Human primary T cell it was 250 to 500 nM.
On to `CC1(C)CC(CNc2nc(Nc3ccc4c(c3)-n3nnnc3CO4)ncc2F)C(C)(C)N1` (stereo not shown) [Compound 2-1, N2-(4H-benzo[b]tetrazolo[1,5-d][1,4]oxazin-8-yl)-5-fluoro-N4-((2,2,5,5-tetramethylpyrrolidin-3-yl)methyl)pyrimidine-2,4-diamine], for which the IC50 on PKC-alpha, on PKC-theta, at PKC-epsilon, at PKC-beta, at PKC-delta and with Human primary T cell (T-cell) was less than 250 nM throughout.
Take `CC1Oc2ccc(Nc3ncc(F)c(NC4CC(C)(C)NC(C)(C)C4)n3)cc2-n2nnnc21` (stereo not shown) [Compound 1-17]: the IC50 on PKC-alpha, at PKC-theta, at PKC-epsilon, at PKC-beta, on PKC-delta and with Human primary T cell (T-cell) was less than 250 nM throughout.
As for `CN1C(C)(C)CC(Nc2nc(Nc3ccc4c(c3)-n3nnnc3C(C)(C)O4)ncc2F)CC1(C)C` [Compound 1-8, N2-(4,4-dimethyl-4H-benzo[b]tetrazolo[1,5-d][1,4]oxazin-8-yl)-5-fluoro-N4-(1,2,2,6,6-pentamethylpiperidin-4-yl)pyrimidine-2,4-diamine], the IC50 on PKC-alpha, at PKC-theta, on PKC-epsilon, on PKC-beta, on PKC-delta and in the assay on Human primary T cell (T-cell) was less than 250 nM each time.
Take `CC1(C)CC(Nc2nc(Nc3ccc4c(c3)-n3nnnc3C(F)(F)O4)ncc2F)CC(C)(C)N1` [Compound 1-5, N2-(4,4-difluoro-4H-benzo[b]tetrazolo[1,5-d][1,4]oxazin-8-yl)-5-fluoro-N4-(2,2,6,6-tetramethylpiperidin-4-yl)pyrimidine-2,4-diamine]: the IC50 on PKC-alpha is less than 250 nM; at PKC-theta, less than 250 nM; on PKC-epsilon it was less than 250 nM; on PKC-beta, less than 250 nM; on PKC-delta, less than 250 nM; with Human primary T cell (T-cell), 500 to 1000 nM.
On to “N2-(4H-benzo[b]pyrrolo[1,2-d][1,4]oxazin-8-yl)-5-fluoro-N4-(2,2,6,6-tetramethylpiperidin-4-yl)pyrimidine-2,4-diamine [Compound 1-3]”, for which, in the assay on Human primary T cell, the IC50 was 1000 to 5000 nM.
Compound “N2-(4H-benzo[b]pyrrolo[1,2-d][1,4]oxazin-8-yl)-5-fluoro-N4-(1,2,2,6,6-pentamethylpiperidin-4-yl)pyrimidine-2,4-diamine [Compound 1-4]” had an IC50 with Human primary T cell of 1000 to 5000 nM.
Consider `CC1(C)CC(Nc2nc(Nc3ccc4c(c3)-c3nnnn3C(C)(C)O4)ncc2F)CC(C)(C)N1` [Compound 1-9, N2-(5,5-dimethyl-5H-benzo[e]tetrazolo[1,5-c][1,3]oxazin-9-yl)-5-fluoro-N4-(2,2,6,6-tetramethylpiperidin-4-yl)pyrimidine-2,4-diamine], for which the IC50 in the assay with Human primary T cell (T-cell) lay within 500 to 1000 nM.

The values above are taken from patent US9453028B2, “Protein kinase C inhibitors and uses thereof” (Rigel Pharmaceuticals, Inc., priority 2009, dated 2016).
